Results: paper PMC9888480, “Carboranyl-1,8-naphthalimide intercalators induce lysosomal membrane permeabilization and ferroptosis in cancer cell lines” (Journal of Enzyme Inhibition and Medicinal Chemistry, 2023)

Legend:
[1] = test system: HepG2 cells; assay: Oxidative stress (ROS) measurement by flow cytometry (H2DCFDA); assay type: cell-based, human; settings: HepG2, 24 h, total IC50 concentration
Procedure: The HepG2 cells were seeded (2 × 10^5 cells/well) onto 12-well plates and cultured in supplemented EMEM at 37 °C under 5% CO2 saturation until 70–80% confluency was reached. […] The intracellular ROS level was analysed by staining with H2DCFDA (ex/em: ∼492–495/517–527 nm) in accordance with the manufacturer’s protocol (Thermo Fisher Scientific, Waltham, MA, USA), wherein ROS trigger the fluorescence. The cells were separated by trypsin (Corning®) and washed twice with DPBS (1 ml, Capricorn). The pelleted cells were suspended in 0.5 ml of DPBS containing H2DCFDA at the final concentration of 0.5 µM. In order to eliminate dead cells from analysis, propidium iodide (10 µg/ml) was also added to the staining mix. The cells were then incubated at 37 °C for 30 min in the dark and then analysed with excitation at 488 nm using a FACSCalibur flow cytometer (Becton Dickinson, Franklin Lakes, NJ, USA), and the data were analysed using the FlowJo software (Becton Dickinson).

[2] = test system: HepG2 cells; assay: Intracellular Fe2+ level determination (FeRhoNox-1); assay type: cell-based, human; settings: HepG2, 24 h, total IC50 concentration
Procedure: The HepG2 cells were seeded at the density of 2 × 10^5 cells/well onto 12-well plates and cultured with supplemented EMEM at 37 °C under 5% CO2 saturation until 70–80% confluency was reached. […] Subsequently, the cells were detached with trypsin (Corning®), washed with 1 ml DPBS (Capricorn), and then resuspended in the growth medium with 5 µM FeRhoNox™-1 (Goryo Chemical) for 1 h. […] The cells were analysed after incubation with the dye with excitation at 488 nm using a FACSCalibur flow cytometer (Becton Dickinson), and the data were analysed using the FlowJo software (Becton Dickinson). To create a strong, single, positive red fluorescence signal, 3 mM N-acetylcysteine (2 h incubation; Sigma-Aldrich) was used.

[3] = test system: ct-DNA; assay: UV–vis spectra titration with ct-DNA (binding constant Kb); set-up: species or system calf; settings: for bathochromic effect: UV–vis, addition of 1.25–15 µM ct-DNA to 10 µM compound; for Kb compared to that of mitonafide: mitonafide Kb 2.54 × 10^5
Procedure: The measurements were performed by adding aliquots of DMSO stock solution of the tested compounds to the buffer solution (pH 7.4, 20 mM, 50 mM NaCl, Tris–HCl buffer, DMSO content of the final solutions = 0.54–0.65%) to the final concentration 10 µM. The tested compounds were incubated for 5 min, with increasing concentrations ranging from 0 to 15 µM of ct-DNA at 37 °C. Then, the UV–vis absorption spectra between 300 and 500 nm were recorded using a GBC Cintra10 UV–VIS spectrometer equipped with a GBC Thermocell Peltier Power Supply with the use of a 1-cm-path-length cell. The binding constant was calculated according to the following equation[70]: A0/A−A0= εG/εH−G−εG+ εG/εH−G−εG × 1/Kb[DNA] where Kb is the binding constant; A0 and a are absorbances of the free tested compound and the apparent one; εG and εH–G are their coefficient, respectively; [DNA] is the concentration of DNA in base pairs. The slope to intercept ratio of the plot between A0/A − A0 and 1/[DNA] yielded the binding constant.

[4] = test system: HepG2 cells; assay: Reduced glutathione (GSH) level measurement (Thiolite Green); assay type: cell-based, human; settings: HepG2, 24 h, total IC50 concentration
Procedure: The HepG2 cells were seeded at a density of 2 × 10^5 cells/well onto 12-well plates and under the same environmental conditions as the above experiments. The cells were then treated with the tested compounds at the final concentration equal to the total IC50 values for 24 h. The cellular GSH level was measured by staining with the nonfluorescent Thiolite Green dye, which emits strong fluorescence after reaction with thiols ([…]) according to the manufacturer’s protocol (AAT Bioquest, Sunnyvale, CA, USA). After incubation with the compounds (34–5 µM, 35–4.5 µM, 36–4 µM, 37–4.5 µM) the cells were detached with trypsin (Corning®) and washed twice with 1 ml of DPBS (Capricorn). Subsequently, the cells were suspended in a staining solution (50 µM) and incubated at 37 °C in a 5% CO2 environment for 30 min. After staining, the fluorescence intensity was analysed using a FACSCalibur flow cytometer with excitation at 488 nm, and the data were analysed using the FlowJo software (Becton Dickinson).

[5] = test system: HepG2 cells; assay: Lysosome status (acridine orange and Lysotracker Deep Red staining); assay type: cell-based, human; settings: HepG2, 3 h, total IC50 concentration (5, 4.5, 4, 4.5 µM)
Procedure: To analyse the condition of the lysosomes, the cells (2 × 10^5) were stained with the 100 nM LysoTracker™ Deep Red (Thermo Fisher Scientific) fluorescent dye for 30 min under growth conditions. The HepG2 and MRC-5 cells were treated with the tested compounds for 3 h.Final concentration of the compounds for HepG2 cells were as follows: 34–5 µM, 35–4.5 µM, 36–4 µM, 37–4.5 µM, whereas for MRC-5 were: 34–2.1 µM, 35–2 µM, 36–2.3 µM, 37–2.3 µM. Subsequently, the cells were trypsinized, rinsed with 1 ml of DPBS (Capricorn), and then incubated with the dye. Then, cytometric analysis of the stained cells was performed at an excitation/emission wavelength of 647/668 nm.
Lysosomal permeabilization was tested using the acridine orange (AO) dye. After treatment with the compounds, the cell pellets were suspended in 500 µl of DBPS containing AO (Sigma-Aldrich) at the final concentration of 0.5 µg/ml. […] Fluorescence intensity was analysed at an excitation wavelength of 488 nm, and two emission spectra were acquired at 505–550 and 600–650 nm for green and red fluorescence, respectively. The cells were analysed after incubation with the dye, with excitation at 488 nm, using a FACSCalibur flow cytometer (Becton Dickinson), and the data were analysed using the FlowJo software (Becton Dickinson). […]

| Substance | ROS generation (green fluorescence intensity) [1] | intracellular Fe2+ level (red fluorescence intensity) [2] | bathochromic effect [3] [nm] | Kb compared to that of mitonafide [3] | GSH level, green fluorescence change compared to control [4] | AO green/red ratio (LMP) [5] |
| --- | --- | --- | --- | --- | --- | --- |
| 4-[(6-[(1,2-Dicarba-closo-dodecaborane-1-yl)ethylamino]hexyl)amino]-3-nitro-N-[2-(N-pyrrolidinyl)ethyl]-1,8-naphthalimide [Compound 36] | weakest ROS inductor | lowest | 7 | similar | not statistically significant |  |
| 4-[(6-[(1,2-Dicarba-closo-dodecaborane-1-yl)ethylamino]hexyl)amino]-N-[2-(dimethylamino)ethyl]-3-nitro-1,8-naphthalimide [Compound 34] | increased approximately twofold |  | 9 |  |  | approximately twofold |
| 4-[(6-[(1,7-Dicarba-closo-dodecaborane-1-yl)ethylamino]hexyl)amino]-3-nitro-N-[2-(N-pyrrolidinyl)ethyl]-1,8-naphthalimide [Compound 37] | increased approximately twofold |  | 8 |  |  |  |
| 4-[(6-[(1,7-Dicarba-closo-dodecaborane-1-yl)ethylamino]hexyl)amino]-N-[2-(dimethylamino)ethyl]-3-nitro-1,8-naphthalimide [Compound 35] | moderate effect | highest ferrous level | 10 | approximately 1.5 fold | 70% | approximately twofold |
